Data reported in ChEMBL document CHEMBL5291721, “A preclinical secondary pharmacology resource illuminates target-adverse drug reaction associations of marketed drugs” (Nat Commun, 2023).

What was measured:
[1] = biological target: T1, Muscarinic acetylcholine receptor M1 (Homo sapiens, UniProt P11229); assay type: functional
T1 sequence (P11229 whole entry): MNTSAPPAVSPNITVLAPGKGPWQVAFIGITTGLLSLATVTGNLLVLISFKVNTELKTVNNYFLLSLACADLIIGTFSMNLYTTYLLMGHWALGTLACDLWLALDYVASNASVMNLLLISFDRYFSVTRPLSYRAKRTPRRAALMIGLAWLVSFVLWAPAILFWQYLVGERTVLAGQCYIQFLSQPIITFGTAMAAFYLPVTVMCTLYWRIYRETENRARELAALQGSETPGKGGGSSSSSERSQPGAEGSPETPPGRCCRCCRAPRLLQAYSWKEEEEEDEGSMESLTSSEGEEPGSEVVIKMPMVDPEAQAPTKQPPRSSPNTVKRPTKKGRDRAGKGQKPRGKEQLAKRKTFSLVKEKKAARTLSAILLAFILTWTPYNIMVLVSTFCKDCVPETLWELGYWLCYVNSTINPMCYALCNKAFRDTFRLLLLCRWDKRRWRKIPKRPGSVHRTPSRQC

[2] = biological target: T2, Alpha-2A adrenergic receptor (Homo sapiens, UniProt P08913); assay type: functional, cell-based
T2 sequence (P08913 whole entry): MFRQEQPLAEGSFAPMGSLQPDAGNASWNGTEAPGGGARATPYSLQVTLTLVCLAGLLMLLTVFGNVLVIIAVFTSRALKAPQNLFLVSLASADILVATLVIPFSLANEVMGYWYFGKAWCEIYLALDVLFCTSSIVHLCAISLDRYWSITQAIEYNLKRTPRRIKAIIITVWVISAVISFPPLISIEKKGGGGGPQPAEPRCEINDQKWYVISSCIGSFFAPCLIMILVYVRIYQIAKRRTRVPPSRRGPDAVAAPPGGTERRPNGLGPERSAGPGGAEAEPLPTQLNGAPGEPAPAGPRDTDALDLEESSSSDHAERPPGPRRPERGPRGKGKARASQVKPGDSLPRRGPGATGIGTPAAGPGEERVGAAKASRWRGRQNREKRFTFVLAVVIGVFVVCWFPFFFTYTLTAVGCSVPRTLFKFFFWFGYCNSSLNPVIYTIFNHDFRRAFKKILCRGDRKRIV

Melanocortin receptor 3 = Melanocortin receptor 3 (Homo sapiens, UniProt P41968)
Adenosine receptor A1 = biological target: T3, Adenosine receptor A1 (Homo sapiens, UniProt P30542)
T3 sequence (P30542 whole entry): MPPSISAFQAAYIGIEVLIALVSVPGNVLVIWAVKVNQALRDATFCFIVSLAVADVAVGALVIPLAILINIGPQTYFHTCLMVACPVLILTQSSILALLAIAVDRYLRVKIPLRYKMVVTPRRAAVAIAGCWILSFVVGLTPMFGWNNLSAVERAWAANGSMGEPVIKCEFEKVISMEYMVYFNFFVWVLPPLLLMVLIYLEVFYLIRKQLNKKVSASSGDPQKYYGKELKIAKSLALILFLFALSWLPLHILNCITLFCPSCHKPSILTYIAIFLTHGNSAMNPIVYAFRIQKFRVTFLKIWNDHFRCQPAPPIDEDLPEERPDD

Adenosine receptor A3 = biological target: T4, Adenosine receptor A3 (Homo sapiens, UniProt P0DMS8)
T4 sequence (P0DMS8 whole entry): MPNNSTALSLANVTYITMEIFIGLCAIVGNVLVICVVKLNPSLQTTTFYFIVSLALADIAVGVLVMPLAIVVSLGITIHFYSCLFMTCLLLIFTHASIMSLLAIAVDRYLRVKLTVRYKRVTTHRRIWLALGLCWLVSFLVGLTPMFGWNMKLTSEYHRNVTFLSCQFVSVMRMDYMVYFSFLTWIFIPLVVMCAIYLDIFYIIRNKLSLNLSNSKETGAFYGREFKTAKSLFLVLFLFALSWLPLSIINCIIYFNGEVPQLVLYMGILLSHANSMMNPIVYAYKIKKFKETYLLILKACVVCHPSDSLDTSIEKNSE

[3] = biological target: cGMP-inhibited 3',5'-cyclic phosphodiesterase 3A (Homo sapiens, UniProt Q14432); assay type: functional
[4] = biological target: T5, 5-hydroxytryptamine receptor 1A (Homo sapiens, UniProt P08908); assay type: functional, cell-based
T5 sequence (P08908 whole entry): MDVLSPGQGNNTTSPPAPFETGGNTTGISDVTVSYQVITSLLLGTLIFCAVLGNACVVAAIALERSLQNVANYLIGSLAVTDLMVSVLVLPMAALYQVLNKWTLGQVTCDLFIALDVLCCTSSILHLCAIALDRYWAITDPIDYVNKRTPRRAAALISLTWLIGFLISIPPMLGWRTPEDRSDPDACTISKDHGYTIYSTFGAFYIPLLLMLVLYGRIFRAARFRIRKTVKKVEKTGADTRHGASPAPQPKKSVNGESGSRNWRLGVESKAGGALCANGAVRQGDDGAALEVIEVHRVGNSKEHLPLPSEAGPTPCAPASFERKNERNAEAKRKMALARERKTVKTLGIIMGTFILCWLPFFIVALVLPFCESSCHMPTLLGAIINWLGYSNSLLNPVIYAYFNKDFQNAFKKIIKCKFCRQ

D(1A) dopamine receptor = D(1A) dopamine receptor (Homo sapiens, UniProt P21728); assay type: functional, cell-based
Note: assay procedure not described here.

Chain of Melanocortin receptor 3 (P41968 whole entry): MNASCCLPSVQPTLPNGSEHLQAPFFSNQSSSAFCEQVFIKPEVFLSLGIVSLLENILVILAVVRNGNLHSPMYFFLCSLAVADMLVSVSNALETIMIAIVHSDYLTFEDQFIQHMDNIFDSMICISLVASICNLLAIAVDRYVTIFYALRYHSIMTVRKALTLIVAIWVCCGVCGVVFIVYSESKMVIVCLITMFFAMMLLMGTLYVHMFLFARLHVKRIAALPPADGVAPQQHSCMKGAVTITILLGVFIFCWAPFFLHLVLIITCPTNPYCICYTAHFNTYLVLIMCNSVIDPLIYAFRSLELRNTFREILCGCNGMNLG
Chain of cGMP-inhibited 3',5'-cyclic phosphodiesterase 3A (Q14432 whole entry): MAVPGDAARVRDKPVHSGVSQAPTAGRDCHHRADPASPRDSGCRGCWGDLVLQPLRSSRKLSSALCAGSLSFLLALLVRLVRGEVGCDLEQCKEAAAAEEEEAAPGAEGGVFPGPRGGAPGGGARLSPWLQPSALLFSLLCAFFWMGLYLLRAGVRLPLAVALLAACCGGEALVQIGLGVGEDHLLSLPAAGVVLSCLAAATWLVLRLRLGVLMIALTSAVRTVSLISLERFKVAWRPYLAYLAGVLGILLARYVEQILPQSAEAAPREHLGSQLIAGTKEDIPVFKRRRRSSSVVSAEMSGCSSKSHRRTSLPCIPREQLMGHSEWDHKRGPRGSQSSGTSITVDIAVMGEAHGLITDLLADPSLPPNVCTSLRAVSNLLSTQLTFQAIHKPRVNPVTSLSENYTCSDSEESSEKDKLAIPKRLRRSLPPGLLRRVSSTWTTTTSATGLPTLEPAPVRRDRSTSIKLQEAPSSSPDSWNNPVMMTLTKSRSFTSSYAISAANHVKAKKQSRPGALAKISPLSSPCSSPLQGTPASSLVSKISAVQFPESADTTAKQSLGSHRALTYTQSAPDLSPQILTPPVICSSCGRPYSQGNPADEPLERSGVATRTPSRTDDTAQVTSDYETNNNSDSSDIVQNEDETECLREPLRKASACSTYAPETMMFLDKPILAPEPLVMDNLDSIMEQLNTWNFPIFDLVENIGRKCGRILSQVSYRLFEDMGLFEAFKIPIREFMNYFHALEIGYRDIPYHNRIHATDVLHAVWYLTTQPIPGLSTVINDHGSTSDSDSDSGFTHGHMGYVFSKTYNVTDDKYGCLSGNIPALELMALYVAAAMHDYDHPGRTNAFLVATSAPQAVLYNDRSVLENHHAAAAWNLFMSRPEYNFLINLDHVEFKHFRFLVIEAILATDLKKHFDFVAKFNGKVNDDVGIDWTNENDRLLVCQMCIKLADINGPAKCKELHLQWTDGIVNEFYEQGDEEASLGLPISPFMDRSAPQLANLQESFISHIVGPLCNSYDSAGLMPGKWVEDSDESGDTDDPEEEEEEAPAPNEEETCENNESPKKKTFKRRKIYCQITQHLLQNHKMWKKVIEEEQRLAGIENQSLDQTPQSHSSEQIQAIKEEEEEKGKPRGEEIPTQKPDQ
Chain of D(1A) dopamine receptor (P21728 whole entry): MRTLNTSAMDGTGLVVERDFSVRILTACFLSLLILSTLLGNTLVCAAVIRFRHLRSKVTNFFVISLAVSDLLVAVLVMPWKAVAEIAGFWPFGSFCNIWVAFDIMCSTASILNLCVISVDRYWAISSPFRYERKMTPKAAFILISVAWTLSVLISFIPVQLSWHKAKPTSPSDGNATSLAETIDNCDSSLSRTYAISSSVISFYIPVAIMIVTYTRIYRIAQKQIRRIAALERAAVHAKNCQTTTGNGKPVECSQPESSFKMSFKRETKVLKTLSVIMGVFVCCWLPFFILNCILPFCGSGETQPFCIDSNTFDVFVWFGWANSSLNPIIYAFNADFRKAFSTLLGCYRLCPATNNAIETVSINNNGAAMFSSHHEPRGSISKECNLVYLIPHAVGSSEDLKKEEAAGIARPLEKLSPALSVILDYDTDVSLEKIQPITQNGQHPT

Molecule	AC50 [1] [µM]	AC50 [2] [µM]	AC50 (Melanocortin receptor 3) [µM]	AC50 (Adenosine receptor A1) [µM]	AC50 (Adenosine receptor A3) [µM]	AC50 [3] [µM]	AC50 [4] [µM]	AC50 (D(1A) dopamine receptor) [µM]
CCC(=O)OCC(=O)[C@@]1(OC(=O)CC)[C@@H](C)C[C@H]2[C@@H]3CCC4=CC(=O)C=C[C@]4(C)[C@@]3(F)[C@@H](O)C[C@@]21C [BETAMETHASONE DIPROPIONATE]	> 30	> 30	> 30	> 30	24	> 30	> 30	> 30
Cc1ccc2c(-c3ccccc3)nc(=O)n(C(C)C)c2c1 [PROQUAZONE]	> 30	28	> 30	> 30	23	> 30	> 30	> 30
CN1CCN(c2c(F)cc3c(=O)c(C(=O)O)cn4c3c2SCC4)CC1 [RUFLOXACIN]	> 30	> 30	> 30	> 30	> 30	> 30	> 30	> 30
CC(=O)c1ccc2c(c1)N(CCCN1CCC(CCO)CC1)c1ccccc1S2 [PIPERACETAZINE]	7.9		> 30	> 30	> 30	> 10	> 30	> 30
CCCN(CC)C(CC)C(=O)Nc1c(C)cccc1C (configuration not stated) [ETIDOCAINE]	> 30	> 30	> 30	> 30	> 30	> 30	> 30	> 30
COLISTIN	> 30	> 30				> 30	> 30	> 30
CCN(CC)CCOC(=O)c1ccc(N)cc1Cl [CHLOROPROCAINE]	> 30	> 30	> 30	> 30	> 30	> 30	> 30	> 30
CC(=O)OCC(=O)[C@@]1(O)CC[C@H]2[C@@H]3CCC4=CC(=O)CC[C@]4(C)C3=CC[C@@]21C [ANECORTAVE ACETATE]	> 10	> 10	> 10	> 10	> 10	> 30	> 10	> 10
CN1c2ccccc2C(NCCCCCCC(=O)O)c2ccc(Cl)cc2S1(=O)=O (configuration not stated) [TIANEPTINE]	> 30	> 30	> 30	> 30	> 30	> 30	> 30	> 30
N=C(N)NCCCCCCC(=O)NC(O)C(=O)NCCCCNCCCN (configuration not stated)	> 30	> 30	> 30	> 30	> 30	> 30	> 30	> 30
CCOC(=O)NNc1ccc(N(CC)CC(C)O)nn1 (configuration not stated) [CADRALAZINE]	> 30	> 30	> 30	> 30	> 30	> 30	> 30	> 30
COc1cc2nccc(Oc3ccc(NC(=O)Nc4cc(C)on4)c(Cl)c3)c2cc1OC [TIVOZANIB]	> 30		> 3		> 3	16		
CCCC[C@H](C)C[C@H](O)/C=C/[C@H]1[C@H](O)CC(=O)[C@@H]1CCCC/C=C/C(=O)O [LIMAPROST]	> 30	> 30	> 30	> 30	> 30	> 30		> 30
CC#CCn1c(N2CCC[C@@H](N)C2)nc2c1c(=O)n(Cc1nc(C)c3ccccc3n1)c(=O)n2C [LINAGLIPTIN]	> 10	> 10	> 30	> 30	26.2	> 30		
COCCOC(=O)C1=C(C)NC(C)=C(C(=O)OC/C=C/c2ccccc2)C1c1cccc([N+](=O)[O-])c1 (configuration not stated) [CILNIDIPINE]	> 30		> 30	> 30	4.8	> 30	> 30	> 30
CN1[C@@H]2CC[C@H]1C[C@@H](OC(=O)c1c[nH]c3ccccc13)C2 [TROPISETRON]		> 30	> 30	> 30	> 30	> 30	> 30	> 30
COC1=C(OC)C(=O)C(CCCCCCCCCCO)=C(C)C1=O [IDEBENONE]		> 10	> 30	> 30	> 30	6.4	> 10	> 30
C[C@@H]1C[C@H]2[C@@H]3C[C@H](F)C4=CC(=O)C=C[C@]4(C)[C@@]3(F)[C@@H](O)C[C@]2(C)[C@H]1C(=O)CO [DIFLUCORTOLONE]	> 30		> 30		> 30	> 30		
COc1cc(OC)c(C(=O)CCCN2CCCC2)c(OC)c1 [BUFLOMEDIL]		6.1	> 30	> 30	> 30	> 30	> 30	> 30
CC1(C)C(/C=C/C=C/C=C/C=C2\N(CCCCS(=O)(=O)O)c3ccc4ccccc4c3C2(C)C)=[N+](CCCCS(=O)(=O)[O-])c2ccc3ccccc3c21 [INDOCYANINE GREEN ACID FORM]	9.2	> 30	> 30	22	3	29	> 30	
Cc1cc2nc3c(=O)[nH]c(=O)nc-3n(C[C@H](O)[C@H](O)[C@H](O)COP(=O)(O)O)c2cc1C [RIBOFLAVIN 5'-PHOSPHATE]	> 30		> 30	> 30	> 30	> 30		> 30
CC(=O)OCC(CCn1cnc2cnc(N)nc21)COC(C)=O [FAMCICLOVIR]		> 10	> 30	> 30	> 30	> 30	> 10	> 10
CCCCCCNC(=O)n1cc(F)c(=O)[nH]c1=O [CARMOFUR]		> 30	> 30	> 30	> 30	> 30	> 30	> 30
C=C[C@@]1(C)CC(=O)[C@]2(O)[C@@]3(C)[C@@H](O)CCC(C)(C)[C@@H]3[C@H](OC(=O)CCN(C)C)[C@H](OC(C)=O)[C@@]2(C)O1	> 30	> 30	> 30	> 30	> 30	> 30	> 30	
